For one series, the target named is Ephrin type-A receptor 4 (Mus musculus, UniProt Q03137). Nature of the series: Displacement of biotinylated ephrin-A1-Fc from mouse EphA4 Fc preincubated for 1 hr followed by ephrin-A1-FC addition and measured after 4 hrs by ELISA. (In general: An ELISA detects its analyte on a solid surface through an enzyme-linked reagent.)
The target in the next series is Ephrin type-A receptor 5 (Rattus norvegicus, UniProt P54757). In words: Displacement of biotinylated ephrin-A1-Fc from rat EphA5 Fc preincubated for 1 hr followed by ephrin-A1-FC addition and measured after 4 hrs by ELISA.
The target in another series is T1, Ephrin type-A receptor 6 (Mus musculus, UniProt Q62413).
T1 sequence (Q62413 whole entry): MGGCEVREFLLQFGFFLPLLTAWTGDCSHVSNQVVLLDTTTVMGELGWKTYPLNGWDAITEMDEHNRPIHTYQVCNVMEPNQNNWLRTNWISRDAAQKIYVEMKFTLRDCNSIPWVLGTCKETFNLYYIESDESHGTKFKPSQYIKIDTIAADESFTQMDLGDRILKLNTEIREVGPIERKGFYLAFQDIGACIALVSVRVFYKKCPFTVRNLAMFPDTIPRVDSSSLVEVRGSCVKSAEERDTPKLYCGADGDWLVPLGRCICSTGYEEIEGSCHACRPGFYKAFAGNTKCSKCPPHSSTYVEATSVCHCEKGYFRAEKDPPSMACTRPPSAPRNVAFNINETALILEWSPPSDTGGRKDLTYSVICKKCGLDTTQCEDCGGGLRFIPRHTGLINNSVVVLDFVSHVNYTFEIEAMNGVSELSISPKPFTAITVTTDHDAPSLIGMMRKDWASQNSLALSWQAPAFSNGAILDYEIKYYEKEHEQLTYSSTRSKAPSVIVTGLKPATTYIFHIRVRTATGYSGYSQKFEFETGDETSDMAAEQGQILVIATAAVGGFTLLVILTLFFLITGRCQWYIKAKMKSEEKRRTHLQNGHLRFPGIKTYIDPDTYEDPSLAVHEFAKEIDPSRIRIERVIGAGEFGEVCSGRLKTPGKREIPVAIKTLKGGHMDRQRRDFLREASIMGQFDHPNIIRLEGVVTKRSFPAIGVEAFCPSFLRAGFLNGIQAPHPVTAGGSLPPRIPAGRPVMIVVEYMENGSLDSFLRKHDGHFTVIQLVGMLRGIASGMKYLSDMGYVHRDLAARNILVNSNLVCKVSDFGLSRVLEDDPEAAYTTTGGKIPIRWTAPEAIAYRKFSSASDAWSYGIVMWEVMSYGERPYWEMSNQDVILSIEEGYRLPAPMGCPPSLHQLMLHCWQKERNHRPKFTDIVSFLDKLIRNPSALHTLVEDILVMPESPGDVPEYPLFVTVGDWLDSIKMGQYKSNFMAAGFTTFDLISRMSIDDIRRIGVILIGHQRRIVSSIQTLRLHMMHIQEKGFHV
In words: Displacement of biotinylated ephrin-A1-Fc from mouse EphA6 Fc preincubated for 1 hr followed by ephrin-A1-FC addition and measured after 4 hrs by ELISA.

The subject of another series is PC-3. Nature of the series: Cytotoxicity against human PC3 cells after 2 hrs by LDH assay. Type of series: cell-based. The following applies: pc-3, 2 h.
A further series concerns the target T2, Ephrin type-B receptor 2 (Mus musculus, UniProt P54763).
T2 sequence (P54763 whole entry): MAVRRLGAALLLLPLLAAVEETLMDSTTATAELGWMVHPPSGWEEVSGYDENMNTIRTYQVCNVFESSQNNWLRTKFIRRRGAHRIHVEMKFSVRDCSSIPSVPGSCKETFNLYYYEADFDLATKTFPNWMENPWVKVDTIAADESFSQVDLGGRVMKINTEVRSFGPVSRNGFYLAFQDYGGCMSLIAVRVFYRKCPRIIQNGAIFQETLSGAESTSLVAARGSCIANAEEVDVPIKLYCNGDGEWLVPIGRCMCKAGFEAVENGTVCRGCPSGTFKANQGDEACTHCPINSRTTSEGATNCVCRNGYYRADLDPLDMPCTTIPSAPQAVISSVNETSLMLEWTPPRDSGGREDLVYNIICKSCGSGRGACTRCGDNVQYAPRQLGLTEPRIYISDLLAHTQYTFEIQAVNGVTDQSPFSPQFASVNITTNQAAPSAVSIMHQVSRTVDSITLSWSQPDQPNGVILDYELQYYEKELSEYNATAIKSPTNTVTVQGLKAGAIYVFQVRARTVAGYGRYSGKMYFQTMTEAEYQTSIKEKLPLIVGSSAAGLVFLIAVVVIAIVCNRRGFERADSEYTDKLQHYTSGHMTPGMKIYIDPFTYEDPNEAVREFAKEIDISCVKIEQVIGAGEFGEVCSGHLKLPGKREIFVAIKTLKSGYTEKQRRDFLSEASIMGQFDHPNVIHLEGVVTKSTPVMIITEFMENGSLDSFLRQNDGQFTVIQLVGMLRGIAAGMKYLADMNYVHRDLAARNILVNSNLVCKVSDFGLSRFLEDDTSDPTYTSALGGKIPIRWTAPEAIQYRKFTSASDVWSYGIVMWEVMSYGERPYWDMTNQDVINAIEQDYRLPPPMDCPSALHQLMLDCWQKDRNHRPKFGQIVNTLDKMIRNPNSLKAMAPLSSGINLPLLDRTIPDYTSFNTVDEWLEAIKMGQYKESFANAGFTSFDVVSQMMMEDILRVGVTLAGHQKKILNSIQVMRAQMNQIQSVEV
Nature of the series: Displacement of biotinylated ephrin-B1-Fc from mouse EphB2 Fc preincubated for 1 hr followed by ephrin-B1-FC addition and measured after 4 hrs by ELISA.

The subject of the next series is Chorioallantoic membrane. In words: Antiangiogenic activity in Leghorn chicken fertilized egg chorioallantoic membrane assessed as reduction in unstimulated neovascularization at 10 uM measured after 3 days by CAM assay. The settings on record: Gallus gallus, time 3.0 day. In kind it is functional, tissue-based.
In the next series the test system is HUVEC. Nature of the series: Cytotoxicity against HUVEC cells upto 30 uM after 16 hrs by MTT assay. In kind it is cell-based. The following applies: human. (Tetrazolium assays rely on reduction of a dye to a coloured formazan, in cell work by metabolically active cells.)

Structures are written as SMILES. pIC50: −log10 of the molar value. Calls of active or inactive are those of the source. The rule behind the calls is not given here.

Ephrin type-A receptor 5, sequence (P54757 whole entry): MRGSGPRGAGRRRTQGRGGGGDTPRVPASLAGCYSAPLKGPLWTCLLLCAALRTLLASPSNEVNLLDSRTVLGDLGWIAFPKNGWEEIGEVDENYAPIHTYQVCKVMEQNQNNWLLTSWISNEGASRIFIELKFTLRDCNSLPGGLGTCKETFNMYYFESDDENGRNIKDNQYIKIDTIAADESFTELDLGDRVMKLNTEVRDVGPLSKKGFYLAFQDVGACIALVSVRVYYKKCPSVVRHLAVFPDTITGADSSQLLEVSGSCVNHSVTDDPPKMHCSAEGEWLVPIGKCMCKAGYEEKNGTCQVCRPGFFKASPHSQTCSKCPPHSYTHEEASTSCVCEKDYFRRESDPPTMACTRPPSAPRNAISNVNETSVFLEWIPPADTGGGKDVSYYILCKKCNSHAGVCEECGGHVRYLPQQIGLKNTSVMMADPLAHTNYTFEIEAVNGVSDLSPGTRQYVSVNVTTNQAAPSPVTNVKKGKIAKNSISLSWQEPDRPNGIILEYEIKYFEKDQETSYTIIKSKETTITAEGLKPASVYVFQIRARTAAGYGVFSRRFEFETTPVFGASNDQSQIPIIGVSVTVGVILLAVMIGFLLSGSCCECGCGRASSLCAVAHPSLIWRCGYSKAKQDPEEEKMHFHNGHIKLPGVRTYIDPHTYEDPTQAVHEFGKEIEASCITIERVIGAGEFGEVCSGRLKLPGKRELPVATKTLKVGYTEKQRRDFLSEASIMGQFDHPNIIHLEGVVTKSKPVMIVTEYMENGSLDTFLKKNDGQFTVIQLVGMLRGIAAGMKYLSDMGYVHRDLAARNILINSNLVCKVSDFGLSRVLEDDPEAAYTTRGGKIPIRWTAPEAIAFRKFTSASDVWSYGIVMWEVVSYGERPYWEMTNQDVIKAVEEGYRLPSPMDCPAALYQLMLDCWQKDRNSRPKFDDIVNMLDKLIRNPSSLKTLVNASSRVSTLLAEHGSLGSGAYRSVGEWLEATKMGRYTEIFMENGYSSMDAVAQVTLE
Ephrin type-A receptor 4, sequence (Q03137 whole entry): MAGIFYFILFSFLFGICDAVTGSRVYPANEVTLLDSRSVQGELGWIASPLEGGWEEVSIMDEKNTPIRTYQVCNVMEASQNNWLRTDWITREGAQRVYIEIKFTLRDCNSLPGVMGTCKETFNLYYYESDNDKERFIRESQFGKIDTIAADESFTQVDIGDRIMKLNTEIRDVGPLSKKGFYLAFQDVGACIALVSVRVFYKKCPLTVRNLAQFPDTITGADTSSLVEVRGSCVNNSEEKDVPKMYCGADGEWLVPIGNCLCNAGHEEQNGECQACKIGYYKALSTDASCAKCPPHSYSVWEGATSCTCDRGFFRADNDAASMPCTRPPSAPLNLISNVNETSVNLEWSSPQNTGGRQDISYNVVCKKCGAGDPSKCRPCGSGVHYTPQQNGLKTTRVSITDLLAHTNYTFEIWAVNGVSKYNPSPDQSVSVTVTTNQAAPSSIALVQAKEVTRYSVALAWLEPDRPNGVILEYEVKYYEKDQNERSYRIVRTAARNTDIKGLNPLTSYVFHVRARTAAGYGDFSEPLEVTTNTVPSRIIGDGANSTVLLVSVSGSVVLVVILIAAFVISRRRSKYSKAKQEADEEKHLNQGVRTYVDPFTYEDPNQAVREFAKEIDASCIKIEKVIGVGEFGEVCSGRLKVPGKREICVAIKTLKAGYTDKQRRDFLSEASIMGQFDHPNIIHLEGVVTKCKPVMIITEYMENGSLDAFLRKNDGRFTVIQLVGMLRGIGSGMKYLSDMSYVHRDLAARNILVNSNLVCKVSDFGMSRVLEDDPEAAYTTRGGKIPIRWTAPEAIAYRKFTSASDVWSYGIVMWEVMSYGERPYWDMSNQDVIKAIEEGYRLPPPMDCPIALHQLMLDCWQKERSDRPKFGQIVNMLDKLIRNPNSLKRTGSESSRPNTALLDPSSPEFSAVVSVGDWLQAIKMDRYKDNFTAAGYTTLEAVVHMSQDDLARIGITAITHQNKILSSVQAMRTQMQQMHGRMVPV

Turning to `CCNC(=O)O[C@@H]1CC[C@@]2(C)[C@H](CC[C@@H]3[C@@H]2CC[C@]2(C)[C@@H]([C@H](C)CCC(=O)N[C@H](CC(=O)O)Cc4c[nH]c5ccccc45)CC[C@@H]32)C1`, the pIC50 on Ephrin type-A receptor 4 was 5.19; on Ephrin type-A receptor 5, 5.36; on Ephrin type-A receptor 6 it was 4.74; at Ephrin type-B receptor 2, 4.85. The Activity entry with PC-3 and in the series on HUVEC was “Non-Toxic” each time. The result in the series with Chorioallantoic membrane was inactive.

By pIC50 is commonly meant −log10 of the IC50, conventionally taken in molar units. Low values mean a high IC50, high ones a low IC50.

For the origin of these results see ChEMBL document CHEMBL4680187, “Optimization of EphA2 antagonists based on a lithocholic acid core led to the identification of UniPR505, a new 3α-carbamoyloxy derivative with antiangiogenetic properties” (Eur J Med Chem, 2020).
